Reference: patent US10377753B2, “Substituted 4-azaindoles and their use as GluN2B receptor modulators” (Janssen Pharmaceutica NV, priority 2015, dated 2019)

Target: cloned human NR1/NR2B ion channels (Homo sapiens (Human), UniProt Q05586+Q13224)
Assay: HNR2BC: effects of test articles on cloned human NR1/NR2B ion channels expressed in mammalian cells (FLIPR calcium flux)
Type: cell-based
Conditions: cloned human NR1/NR2B ion channels, Table 5
Summary of the method: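 In a stable Tet-On-induced cell line expressing human GluN1/GluN2B, Calcium 5-loaded cells were preincubated 5 min with compound, then stimulated 5 min with glutamate at ~EC80 plus 10 μM glycine, in pH 7.4 HEPES buffer. FLIPR calcium fluorescence was normalized to control wells.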

Chain of cloned human NR1/NR2B ion channels (Q13224 27-1484, other chains not shown): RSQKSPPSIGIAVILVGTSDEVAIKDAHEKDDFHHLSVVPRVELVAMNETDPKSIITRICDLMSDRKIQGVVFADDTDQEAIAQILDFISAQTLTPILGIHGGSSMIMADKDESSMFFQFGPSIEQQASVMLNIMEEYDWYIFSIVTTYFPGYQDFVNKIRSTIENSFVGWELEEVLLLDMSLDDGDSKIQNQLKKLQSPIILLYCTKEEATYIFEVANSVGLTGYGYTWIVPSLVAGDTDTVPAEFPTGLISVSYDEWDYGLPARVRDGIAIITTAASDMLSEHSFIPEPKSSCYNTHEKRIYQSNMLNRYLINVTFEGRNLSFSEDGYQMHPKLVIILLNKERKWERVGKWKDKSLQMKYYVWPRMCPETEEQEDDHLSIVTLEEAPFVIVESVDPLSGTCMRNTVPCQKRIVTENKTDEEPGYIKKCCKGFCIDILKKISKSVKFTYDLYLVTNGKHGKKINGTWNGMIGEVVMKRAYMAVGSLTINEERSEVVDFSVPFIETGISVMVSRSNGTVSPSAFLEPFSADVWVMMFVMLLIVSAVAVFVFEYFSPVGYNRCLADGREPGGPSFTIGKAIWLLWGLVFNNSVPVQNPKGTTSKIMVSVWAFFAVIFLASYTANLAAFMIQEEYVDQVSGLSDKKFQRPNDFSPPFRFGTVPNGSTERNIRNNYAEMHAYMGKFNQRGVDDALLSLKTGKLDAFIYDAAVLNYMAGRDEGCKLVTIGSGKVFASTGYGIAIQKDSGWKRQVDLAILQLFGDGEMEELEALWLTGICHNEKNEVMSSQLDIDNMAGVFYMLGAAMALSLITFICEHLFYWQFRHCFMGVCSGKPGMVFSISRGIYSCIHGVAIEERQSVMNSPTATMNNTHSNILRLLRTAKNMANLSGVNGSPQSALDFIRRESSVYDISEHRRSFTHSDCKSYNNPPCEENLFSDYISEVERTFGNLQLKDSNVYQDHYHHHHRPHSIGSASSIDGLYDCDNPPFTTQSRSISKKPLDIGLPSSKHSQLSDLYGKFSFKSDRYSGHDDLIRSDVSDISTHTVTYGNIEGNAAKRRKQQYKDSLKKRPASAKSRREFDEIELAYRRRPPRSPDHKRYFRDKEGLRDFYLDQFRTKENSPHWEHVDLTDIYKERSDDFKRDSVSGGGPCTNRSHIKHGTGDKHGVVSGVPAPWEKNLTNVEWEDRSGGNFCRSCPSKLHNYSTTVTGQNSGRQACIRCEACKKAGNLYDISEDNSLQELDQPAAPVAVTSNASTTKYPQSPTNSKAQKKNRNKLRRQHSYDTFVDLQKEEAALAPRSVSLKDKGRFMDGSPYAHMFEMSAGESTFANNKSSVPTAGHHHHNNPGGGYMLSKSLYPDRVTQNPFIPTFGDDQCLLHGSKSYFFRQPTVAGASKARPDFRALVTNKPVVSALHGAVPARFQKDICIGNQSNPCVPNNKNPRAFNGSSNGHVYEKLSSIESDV

Compound	IC50	pIC50
CCN(C)C(=O)Cn1ccc2ncc(-c3cccc(C(F)(F)F)c3)cc21 [Example 470, N-Ethyl-N-methyl-2-[6-[3-(trifluoromethyl)phenyl]pyrrolo[3,2-b]pyridin-1-yl]acetamide]	200 nM	–
O=C(Cn1cc(F)c2ncc(-c3ccccc3F)cc21)N1CCC1 [Example 471, 1-(Azetidin-1-yl)-2-[3-fluoro-6-(2-fluorophenyl)pyrrolo[3,2-b]pyridin-1-yl]ethanone]	100 nM	–
O=C(Cn1cc(F)c2ncc(-c3cccc(C(F)(F)F)c3)cc21)N1CCC1 [Example 475, 1-(Azetidin-1-yl)-2-[3-fluoro-6-[3-(trifluoromethyl)phenyl]pyrrolo[3,2-b]pyridin-1-yl]ethanone]	25.1 nM	–
O=C(Cn1cc(F)c2ncc(-c3cccc(C(F)(F)F)c3F)cc21)N1CCC1 [Example 476, 1-(Azetidin-1-yl)-2-[3-fluoro-6-[2-fluoro-3-(trifluoromethyl)phenyl]pyrrolo[3,2-b]pyridin-1-yl]ethanone]	50.1 nM	–
O=C(Cn1cc(F)c2ncc(-c3ccc(F)c(F)c3F)cc21)N1CCC1 [Example 477, 1-(Azetidin-1-yl)-2-[3-fluoro-6-(2,3,4-trifluorophenyl)pyrrolo[3,2-b]pyridin-1-yl]ethanone]	50.1 nM	–
O=C(Cn1cc(F)c2ncc(-c3cccc(Cl)c3)cc21)N1CCC1 [Example 478, 1-(Azetidin-1-yl)-2-[6-(3-chlorophenyl)-3-fluoro-pyrrolo[3,2-b]pyridin-1-yl]ethanone]	39.8 nM	–
O=C(Cn1cc(F)c2ncc(-c3cccc(Cl)c3F)cc21)N1CCC1 [Example 479, 1-(Azetidin-1-yl)-2-[6-(3-chloro-2-fluoro-phenyl)-3-fluoro-pyrrolo[3,2-b]pyridin-1-yl]ethanone]	25.1 nM	–
Cc1c(F)ccc(-c2cnc3c(F)cn(CC(=O)N4CCC4)c3c2)c1F [Example 480, 1-(Azetidin-1-yl)-2-[6-(2,4-difluoro-3-methyl-phenyl)-3-fluoro-pyrrolo[3,2-b]pyridin-1-yl]ethanone]	39.8 nM	–
O=C(Cn1cc(F)c2ncc(-c3ccc(F)c(Cl)c3)cc21)N1CCC1 [Example 481, 1-(Azetidin-1-yl)-2-[6-(3-chloro-4-fluoro-phenyl)-3-fluoro-pyrrolo[3,2-b]pyridin-1-yl]ethanone]	25.1 nM	–
Cc1cccc(-c2cnc3c(F)cn(CC(=O)N4CC(F)C4)c3c2)c1F [Example 483, 1-(3-Fluoroazetidin-1-yl)-2-[3-fluoro-6-(2-fluoro-3-methyl-phenyl)pyrrolo[3,2-b]pyridin-1-yl]ethanone]	63.1 nM	–
O=C(Cn1cc(F)c2ncc(-c3ccc(F)c(F)c3F)cc21)N1CC(F)C1 [Example 486, 1-(3-Fluoroazetidin-1-yl)-2-[3-fluoro-6-(2,3,4-trifluorophenyl)pyrrolo[3,2-b]pyridin-1-yl]ethanone]	25.1 nM	–
O=C(Cn1cc(F)c2ncc(-c3cccc(Cl)c3)cc21)N1CC(F)C1 [Example 489, 2-[6-(3-Chlorophenyl)-3-fluoro-pyrrolo[3,2-b]pyridin-1-yl]-1-(3-fluoroazetidin-1-yl)ethanone]	–	8.0
CN(C)C(=O)Cn1cc(F)c2ncc(-c3ccccc3F)cc21 [Example 493, 2-[3-Fluoro-6-(2-fluorophenyl)pyrrolo[3,2-b]pyridin-1-yl]-N,N-dimethyl-acetamide]	25.1 nM	–
Cc1cccc(-c2cnc3c(F)cn(CC(=O)N(C)C)c3c2)c1F [Example 494, 2-[3-Fluoro-6-(2-fluoro-3-methyl-phenyl)pyrrolo[3,2-b]pyridin-1-yl]-N,N-dimethyl-acetamide]	316 nM	–
CN(C)C(=O)Cn1cc(F)c2ncc(-c3ccccc3)cc21 [Example 495, 2-(3-Fluoro-6-phenyl-pyrrolo[3,2-b]pyridin-1-yl)-N,N-dimethyl-acetamide]	12.6 nM	–
CN(C)C(=O)Cn1cc(F)c2ncc(-c3cccc(C(F)(F)F)c3)cc21 [Example 499, 2-[3-Fluoro-6-[3-(trifluoromethyl)phenyl]pyrrolo[3,2-b]pyridin-1-yl]-N,N-dimethyl-acetamide]	25.1 nM	–
CN(C)C(=O)Cn1cc(F)c2ncc(-c3cccc(C(F)(F)F)c3F)cc21 [Example 500, 2-[3-Fluoro-6-[2-fluoro-3-(trifluoromethyl)phenyl]pyrrolo[3,2-b]pyridin-1-yl]-N,N-dimethyl-acetamide]	31.6 nM	–
CN(C)C(=O)Cn1cc(F)c2ncc(-c3ccc(F)c(F)c3F)cc21 [Example 501, 2-[3-Fluoro-6-(2,3,4-trifluorophenyl)pyrrolo[3,2-b]pyridin-1-yl]-N,N-dimethyl-acetamide]	39.8 nM	–
Cc1c(F)ccc(-c2cnc3c(F)cn(CC(=O)N(C)C)c3c2)c1F [Example 502, 2-[6-(2,4-Difluoro-3-methyl-phenyl)-3-fluoro-pyrrolo[3,2-b]pyridin-1-yl]-N,N-dimethyl-acetamide]	39.8 nM	–
CN(C)C(=O)Cn1cc(F)c2ncc(-c3ccc(F)c(Cl)c3)cc21 [Example 504, 2-[6-(3-Chloro-4-fluoro-phenyl)-3-fluoro-pyrrolo[3,2-b]pyridin-1-yl]-N,N-dimethyl-acetamide]	12.6 nM	–
O=C(Cn1cc(F)c2ncc(-c3cccc(F)c3)cc21)N1CCC1 [Example 506, 1-(Azetidin-1-yl)-2-[3-fluoro-6-(3-fluorophenyl)pyrrolo[3,2-b]pyridin-1-yl]ethanone]	15.8 nM	–
O=C(Cn1cc(F)c2ncc(-c3ccc(F)c(C(F)(F)F)c3)cc21)N1CC(F)C1 [Example 508, 1-(3-Fluoroazetidin-1-yl)-2-[3-fluoro-6-[4-fluoro-3-(trifluoromethyl)phenyl]pyrrolo[3,2-b]pyridin-1-yl]ethanone]	126 nM	–

More lines, now with the values ahead:

IC50	pIC50	Compound
200 nM	–	Cc1cccc(-c2cnc3c(F)cn(CC(=O)N4CCC4)c3c2)c1F [Example 472, 1-(Azetidin-1-yl)-2-[3-fluoro-6-(2-fluoro-3-methyl-phenyl)pyrrolo[3,2-b]pyridin-1-yl]ethanone]
31.6 nM	–	Cc1cccc(-c2cnc3c(F)cn(CC(=O)N4CCC4)c3c2)c1 [Example 473, 1-(Azetidin-1-yl)-2-[3-fluoro-6-(m-tolyl)pyrrolo[3,2-b]pyridin-1-yl]ethanone]
31.6 nM	–	O=C(Cn1cc(F)c2ncc(-c3cc(F)cc(F)c3)cc21)N1CCC1 [Example 474, 1-(Azetidin-1-yl)-2-[6-(3,5-difluorophenyl)-3-fluoro-pyrrolo[3,2-b]pyridin-1-yl]ethanone]
15.8 nM	–	O=C(Cn1cc(F)c2ncc(-c3ccccc3)cc21)N1CC(F)C1 [Example 482, 1-(3-Fluoroazetidin-1-yl)-2-(3-fluoro-6-phenyl-pyrrolo[3,2-b]pyridin-1-yl)ethanone]
12.6 nM	–	O=C(Cn1cc(F)c2ncc(-c3cccc(C(F)(F)F)c3)cc21)N1CC(F)C1 [Example 484, 1-(3-Fluoroazetidin-1-yl)-2-[3-fluoro-6-[3-(trifluoromethyl)phenyl]pyrrolo[3,2-b]pyridin-1-yl]ethanone]
39.8 nM	–	O=C(Cn1cc(F)c2ncc(-c3cccc(C(F)(F)F)c3F)cc21)N1CC(F)C1 [Example 485, 1-(3-Fluoroazetidin-1-yl)-2-[3-fluoro-6-[2-fluoro-3-(trifluoromethyl)phenyl]pyrrolo[3,2-b]pyridin-1-yl]ethanone]
50.1 nM	–	O=C(Cn1cc(F)c2ncc(-c3cc(F)cc(F)c3)cc21)N1CC(F)C1 [Example 487, 2-[6-(3,5-Difluorophenyl)-3-fluoro-pyrrolo[3,2-b]pyridin-1-yl]-1-(3-fluoroazetidin-1-yl)ethanone]
15.8 nM	–	Cc1c(F)ccc(-c2cnc3c(F)cn(CC(=O)N4CC(F)C4)c3c2)c1F [Example 488, 2-[6-(2,4-Difluoro-3-methyl-phenyl)-3-fluoro-pyrrolo[3,2-b]pyridin-1-yl]-1-(3-fluoroazetidin-1-yl)ethanone]
20 nM	–	O=C(Cn1cc(F)c2ncc(-c3cccc(Cl)c3F)cc21)N1CC(F)C1 [Example 490, 2-[6-(3-Chloro-2-fluoro-phenyl)-3-fluoro-pyrrolo[3,2-b]pyridin-1-yl]-1-(3-fluoroazetidin-1-yl)ethanone]
15.8 nM	–	CCc1cccc(-c2cnc3c(F)cn(CC(=O)N4CC(F)C4)c3c2)c1 [Example 491, 2-[6-(3-Ethylphenyl)-3-fluoro-pyrrolo[3,2-b]pyridin-1-yl]-1-(3-fluoroazetidin-1-yl)ethanone]
25.1 nM	–	O=C(Cn1cc(F)c2ncc(-c3cccc(F)c3)cc21)N1CC(F)C1 [Example 492, 1-(3-Fluoroazetidin-1-yl)-2-[3-fluoro-6-(3-fluorophenyl)pyrrolo[3,2-b]pyridin-1-yl]ethanone]
79.4 nM	–	Cc1cccc(-c2cnc3c(F)cn(CC(=O)N(C)C)c3c2)c1 [Example 496, 2-[3-Fluoro-6-(m-tolyl)pyrrolo[3,2-b]pyridin-1-yl]-N,N-dimethyl-acetamide]
31.6 nM	–	O=C(Cn1cc(F)c2ncc(-c3ccccc3)cc21)N1CCC1 [Example 497, 1-(Azetidin-1-yl)-2-(3-fluoro-6-phenyl-pyrrolo[3,2-b]pyridin-1-yl)ethanone]
79.4 nM	–	CCc1cccc(-c2cnc3c(F)cn(CC(=O)N4CCC4)c3c2)c1 [Example 498, 1-(Azetidin-1-yl)-2-[6-(3-ethylphenyl)-3-fluoro-pyrrolo[3,2-b]pyridin-1-yl]ethanone]
15.8 nM	–	CN(C)C(=O)Cn1cc(F)c2ncc(-c3cccc(Cl)c3)cc21 [Example 503, 2-[6-(3-Chlorophenyl)-3-fluoro-pyrrolo[3,2-b]pyridin-1-yl]-N,N-dimethyl-acetamide]
20 nM	–	CCc1cccc(-c2cnc3c(F)cn(CC(=O)N(C)C)c3c2)c1 [Example 505, 2-[6-(3-Ethylphenyl)-3-fluoro-pyrrolo[3,2-b]pyridin-1-yl]-N,N-dimethyl-acetamide]
20 nM	–	O=C(Cn1cc(F)c2ncc(-c3ccccc3F)cc21)N1CC(F)C1 [Example 507, 1-(3-Fluoroazetidin-1-yl)-2-[3-fluoro-6-(2-fluorophenyl)pyrrolo[3,2-b]pyridin-1-yl]ethanone]
